Laboratory results as given in PubChem BioAssay (NCI).
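Interpolation was linear, between the two tested concentrations surrounding the appropriate level; five concentrations were tested over 48 hours in 96-well plates. GI50 is the concentration that inhibits growth by half. At the TGI there is no net growth.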

What was measured:
Experiment in all cases: growth of human tumour cells (NCI), 48 h
[1] = test system: BT-549 breast
[2] = test system: HOP-92 NSCLC
[3] = test system: CAKI-1 renal
[4] = test system: OVCAR-4 ovarian
[5] = test system: HS 578T breast
[6] = test system: U251 CNS
[7] = test system: EKVX NSCLC
[8] = test system: HCC-2998 colon
[9] = test system: HL-60(TB) leukemia
[10] = test system: SR leukemia

Row | SMILES | GI50 [1] | TGI [1] | TGI [2] | GI50 [3] | TGI [3] | GI50 [4] | TGI [4] | GI50 [5] | TGI [5] | GI50 [6] | TGI [6] | GI50 [7] | TGI [7] | GI50 [8] | TGI [8] | GI50 [9] | TGI [9] | GI50 [2] | TGI [10] | GI50 [10]
1 | C=CCCCCCCCCCCC1(O)C=CC2=[N+](CCCCCN=C(N)N)CCCN21 (centres undefined) | 3.56 µM | 13.2 µM | 0.759 µM | 3.22 µM | 14.1 µM | 4.84 µM | 19.9 µM | 3.82 µM | 13.1 µM | 1.49 µM | 13.9 µM | 10.8 µM | 26.7 µM | 2.66 µM | 24.6 µM |  |  |  |  | 
2 | Cc1csc(Nc2nc(-c3cccc(Br)c3)nc(C(Cl)(Cl)Cl)n2)n1 | > 100 µM | > 100 µM | 6.16 µM | 2.41 µM | > 100 µM | > 100 µM | > 100 µM | 2.94 µM | > 100 µM | 1.83 µM | > 100 µM | 1.61 µM | 5.35 µM | 1.63 µM | 3.57 µM | 1.04 µM | 3.96 µM | 1.1 µM |  | 
3 | O=C(N/N=C1/C(=O)N(c2ccc(Cl)cc2Cl)C(=O)C(=O)C1c1nc2ccccc2o1)c1ccccc1O (centres undefined) |  |  | 93.5 µM |  | > 100 µM |  |  |  |  |  |  |  | > 100 µM |  |  |  |  |  | > 100 µM | 
4 | O=C(Nc1cc(Cl)ccc1Cl)c1cc2cccc(Cl)c2oc1=O |  |  |  |  |  |  |  |  |  |  | > 100 µM |  | > 100 µM |  |  |  | > 100 µM |  |  | 
5 | C1CSCCSCCS1 |  | > 100 µM | > 100 µM |  |  |  | > 100 µM |  |  |  | > 100 µM |  | > 100 µM |  | > 100 µM |  | > 100 µM |  | > 100 µM | 
6 | CC(=O)n1c2c(c(=O)n1-c1ccccc1)S(=O)CCC2 (centres undefined) |  |  |  |  | > 100 µM |  | 44.4 µM |  |  |  | > 100 µM |  | > 100 µM |  | > 100 µM |  | > 70 µM |  | 22.8 µM | 
7 | COc1ccc2oc(-c3cccnc3)cc(=O)c2c1 |  |  | > 100 µM |  | > 100 µM |  | > 100 µM |  |  |  | > 100 µM |  |  |  | > 100 µM |  | > 100 µM |  |  | 
8 | COc1ccc(-c2cc(-c3ccccc3)c(C#N)c(=O)n2C2OC(CO)C(O)C(O)C2O)cc1 (centres undefined) |  |  |  |  |  |  | > 100 µM |  |  |  | > 100 µM |  | > 100 µM |  | > 100 µM |  | > 100 µM |  | > 100 µM | 
9 | c1ccc(SC2CCSc3ccccc3C2Sc2ccccc2)cc1 (centres undefined) |  |  | > 100 µM |  | 85 µM |  | > 100 µM |  |  |  | > 100 µM |  | > 100 µM |  | > 100 µM |  | > 100 µM |  |  | 
10 | COc1cccc(/C=N/[N-]C(=O)c2ccncc2)c1[O-].[Cu+2].[OH3+] |  |  | > 100 µM | > 100 µM | > 100 µM | 78.6 µM | > 100 µM |  |  | 20.5 µM | > 100 µM | 58 µM | > 100 µM | > 100 µM | > 100 µM | 23 µM | 53.7 µM | > 100 µM | 92 µM | 26.9 µM
11 | O=c1n(-c2ccccc2)c(=O)n2n1C1C=CC2C2C(C1)C2(Cl)Cl (centres undefined) |  |  |  |  | > 100 µM |  | > 100 µM |  |  |  | > 100 µM |  | > 100 µM |  | > 100 µM |  | > 100 µM |  | > 100 µM | 
12 | COc1ccncc1C#Cc1cncc(C(=O)Nc2ccc(CN3CCN(C)CC3)c(C(F)(F)F)c2)c1 | 21.1 µM | > 100 µM | 57.2 µM | 22.6 µM | > 100 µM | 6.07 µM | > 100 µM | 7.75 µM | 52.5 µM | 35.6 µM | > 100 µM | 24.7 µM | > 100 µM | 24.8 µM | > 100 µM | 7.4 µM | 46.7 µM | 4.83 µM |  | 
13 | CCOC(=O)NC(=O)c1cn(CCOC(=O)NCCCCCCNC(=O)OCCn2cc(C(=O)NC(=O)OCC)c(=O)[nH]c2=O)c(=O)[nH]c1=O |  |  |  |  | > 100 µM |  | > 100 µM |  |  |  | > 100 µM |  | > 100 µM |  | > 100 µM |  | > 100 µM |  |  | 
14 | COC(=O)[C@]1(C)CCCC2(C)C1CC[C@H]1C=C(C)[C@H]3CCC12C3 (some centres undefined) |  |  | > 100 µM |  | > 100 µM |  | > 100 µM |  |  |  | > 100 µM |  |  |  | > 100 µM |  | > 100 µM |  | > 100 µM | 
15 | CCCNC(=S)/N=C/c1c(O)c2ccccc2[nH]c1=O |  | > 100 µM | > 100 µM |  | > 100 µM |  | > 100 µM |  | > 100 µM |  | > 100 µM |  | > 100 µM |  | > 100 µM |  | > 100 µM |  |  | 
16 | CC(C)=CCc1cc(O)cc2c1OC(C=C(C)C)C1=C2C(=O)C2=C(NCCS2(=O)=O)C1=O (centres undefined) | 2.87 µM | 5.23 µM | 15.9 µM |  |  | 0.811 µM | 3.06 µM | 3.48 µM | 11.9 µM | 2.79 µM | 5.25 µM | 2.73 µM | 9.57 µM | 2.63 µM | 5.19 µM |  |  | 5.73 µM |  | 
17 | CC(=O)O[C@H]1CCC2[C@@H]3CCC4=C(O)c5nocc5C[C@]4(C)C3CC[C@@]21C (some centres undefined) |  |  | > 100 µM |  | > 100 µM |  | > 100 µM |  |  |  | > 100 µM |  | > 100 µM |  |  |  |  |  |  | 
18 | CCOc1ccc(N2C(=O)/C(=C/c3ccc(N(CCC#N)CCC#N)cc3)N=C2c2cc([N+](=O)[O-])ccc2Cl)cc1 |  |  |  |  | 87.1 µM |  | > 100 µM |  |  |  | > 100 µM |  | > 100 µM |  | > 100 µM |  | > 100 µM |  |  | 
19 | O=c1c2ccccc2sc2cccc(NCCCN3CCN(CCCNc4cccc5sc6ccccc6c(=O)c45)CC3)c12 |  |  |  |  | > 100 µM |  | > 100 µM |  | > 100 µM |  | > 100 µM |  | > 100 µM |  | > 100 µM |  | > 100 µM |  | > 100 µM | 
20 | Cc1ccc(NC(=O)C2C(=O)N(c3ccc(C)c(C)c3)C(=O)C2N=N)cc1C (centres undefined) |  |  | > 100 µM |  | > 100 µM |  | > 100 µM |  |  |  | > 100 µM |  | > 100 µM |  | > 100 µM |  | > 100 µM |  |  | 
21 | O=C1[C@@H]2C3c4ccccc4C([C@@H]2C(=O)N1c1ccccc1)S3(=O)=O |  |  | > 100 µM |  |  |  |  |  |  |  | > 100 µM |  | > 100 µM |  | > 100 µM |  | > 100 µM |  | > 100 µM | 
22 | O=C(CSc1nnc(-c2ccc(N=Cc3ccc(Cl)cc3)cc2)o1)Nc1ccc(Cl)cc1 |  |  |  |  |  |  | > 100 µM |  |  |  | > 100 µM |  | > 100 µM |  |  |  | > 100 µM |  | > 100 µM | 
23 | O=c1[nH]cc(COCCO)c(=O)[nH]1 |  |  | > 100 µM |  | > 100 µM |  | > 100 µM |  |  |  | > 100 µM |  | > 100 µM |  |  |  | > 100 µM |  |  | 
